# Results as given in PubChem BioAssay (NCI).
#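 48-hour exposure; five concentrations; linearly interpolated endpoints. GI50 = concentration required for 50% inhibition of growth. The concentration for full growth arrest is given as TGI.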
# Key:
# Assay in all cases: inhibition of tumour cell growth, NCI panel, 48 h
# 786-0 renal = system: 786-0 renal
# A498 renal = system: A498 renal
# A549 NSCLC = system: A549 NSCLC
# ACHN renal = system: ACHN renal
# BT-549 breast = system: BT-549 breast
# CAKI-1 renal = system: CAKI-1 renal
# CCRF-CEM leukemia = system: CCRF-CEM leukemia
# COLO 205 colon = system: COLO 205 colon
# DU-145 prostate = system: DU-145 prostate
# EKVX NSCLC = system: EKVX NSCLC
# HCC-2998 colon = system: HCC-2998 colon
# HCT-116 colon = system: HCT-116 colon
# HCT-15 colon = system: HCT-15 colon
# HL-60(TB) leukemia = system: HL-60(TB) leukemia
# HOP-62 NSCLC = system: HOP-62 NSCLC
# HOP-92 NSCLC = system: HOP-92 NSCLC
# HS 578T breast = system: HS 578T breast
# HT29 colon = system: HT29 colon
# IGROV1 ovarian = system: IGROV1 ovarian
# K-562 leukemia = system: K-562 leukemia
# KM12 colon = system: KM12 colon
# LOX IMVI melanoma = system: LOX IMVI melanoma
# M14 melanoma = system: M14 melanoma
# MALME-3M melanoma = system: MALME-3M melanoma
# MCF7 breast = system: MCF7 breast
# MDA-MB-231 breast = system: MDA-MB-231 breast
# MDA-MB-435 = system: MDA-MB-435
# MDA-MB-468 breast = system: MDA-MB-468 breast
# MOLT-4 leukemia = system: MOLT-4 leukemia
# NCI-H226 lung = system: NCI-H226 lung
# NCI-H23 lung = system: NCI-H23 lung
# NCI-H460 lung = system: NCI-H460 lung
# NCI-H522 lung = system: NCI-H522 lung
# OVCAR-3 ovarian = system: OVCAR-3 ovarian
# OVCAR-4 ovarian = system: OVCAR-4 ovarian
# OVCAR-5 ovarian = system: OVCAR-5 ovarian
# OVCAR-8 ovarian = system: OVCAR-8 ovarian
# PC-3 prostate = system: PC-3 prostate
# RPMI-8226 leukemia = system: RPMI-8226 leukemia
# RXF 393 renal = system: RXF 393 renal
# SF-268 CNS = system: SF-268 CNS
# SF-295 CNS = system: SF-295 CNS
# SF-539 CNS = system: SF-539 CNS
# SK-MEL-2 melanoma = system: SK-MEL-2 melanoma
# SK-MEL-28 melanoma = system: SK-MEL-28 melanoma
# SK-MEL-5 melanoma = system: SK-MEL-5 melanoma
# SK-OV-3 ovarian = system: SK-OV-3 ovarian
# SN12C renal = system: SN12C renal
# SNB-19 CNS = system: SNB-19 CNS
# SR leukemia = system: SR leukemia
# SW-620 colon = system: SW-620 colon
# T-47D breast = system: T-47D breast
# TK-10 renal = system: TK-10 renal
# U251 CNS = system: U251 CNS
# UACC-257 melanoma = system: UACC-257 melanoma
# UACC-62 melanoma = system: UACC-62 melanoma
# UO-31 renal = system: UO-31 renal
structure (smiles),measurement,setting,value
C=CC(=O)N1CCN(c2ccc3nc4c(nc3c2C(F)(F)F)C(=O)c2ncccc2C4=O)CC1,GI50,786-0 renal,9.96 µM
same,TGI,786-0 renal,66.6 µM
same,GI50,A498 renal,15.6 µM
same,TGI,A498 renal,29.8 µM
same,GI50,A549 NSCLC,3.05 µM
same,TGI,A549 NSCLC,14.7 µM
same,GI50,ACHN renal,6.41 µM
same,TGI,ACHN renal,20.5 µM
same,GI50,BT-549 breast,7.17 µM
same,TGI,BT-549 breast,20.3 µM
same,GI50,CAKI-1 renal,9.74 µM
same,TGI,CAKI-1 renal,38 µM
same,GI50,CCRF-CEM leukemia,2.99 µM
same,TGI,CCRF-CEM leukemia,> 98 µM
same,GI50,COLO 205 colon,2.42 µM
same,TGI,COLO 205 colon,7.83 µM
same,GI50,DU-145 prostate,6.16 µM
same,TGI,DU-145 prostate,20 µM
same,GI50,EKVX NSCLC,8.45 µM
same,TGI,EKVX NSCLC,21.9 µM
same,GI50,HCC-2998 colon,5.44 µM
same,TGI,HCC-2998 colon,18.1 µM
same,GI50,HCT-116 colon,2.67 µM
same,TGI,HCT-116 colon,7.4 µM
same,GI50,HCT-15 colon,2.39 µM
same,TGI,HCT-15 colon,11.9 µM
same,GI50,HL-60(TB) leukemia,3.34 µM
same,TGI,HL-60(TB) leukemia,> 98 µM
same,GI50,HOP-62 NSCLC,10.9 µM
same,TGI,HOP-62 NSCLC,39.8 µM
same,GI50,HOP-92 NSCLC,19 µM
same,TGI,HOP-92 NSCLC,57.1 µM
same,GI50,HS 578T breast,16.9 µM
same,TGI,HS 578T breast,56.4 µM
same,GI50,HT29 colon,3.27 µM
same,TGI,HT29 colon,11 µM
same,GI50,IGROV1 ovarian,2.9 µM
same,TGI,IGROV1 ovarian,12.3 µM
same,GI50,K-562 leukemia,4.4 µM
same,TGI,K-562 leukemia,> 98 µM
same,GI50,KM12 colon,4.61 µM
same,TGI,KM12 colon,55.3 µM
same,GI50,LOX IMVI melanoma,2.09 µM
same,TGI,LOX IMVI melanoma,6.37 µM
same,GI50,M14 melanoma,2.53 µM
same,TGI,M14 melanoma,12.3 µM
same,GI50,MALME-3M melanoma,1.3 µM
same,TGI,MALME-3M melanoma,2.67 µM
same,GI50,MCF7 breast,1.77 µM
same,TGI,MCF7 breast,5.48 µM
same,GI50,MDA-MB-231 breast,2.95 µM
same,TGI,MDA-MB-231 breast,10.7 µM
same,GI50,MDA-MB-435,1.68 µM
same,TGI,MDA-MB-435,3.21 µM
same,GI50,MDA-MB-468 breast,1.58 µM
same,TGI,MDA-MB-468 breast,3.67 µM
same,GI50,MOLT-4 leukemia,3.28 µM
same,TGI,MOLT-4 leukemia,21.2 µM
same,GI50,NCI-H226 lung,10.9 µM
same,TGI,NCI-H226 lung,27.7 µM
same,GI50,NCI-H23 lung,1.97 µM
same,TGI,NCI-H23 lung,9.88 µM
same,GI50,NCI-H460 lung,1.25 µM
same,TGI,NCI-H460 lung,3.75 µM
same,GI50,NCI-H522 lung,9.95 µM
same,TGI,NCI-H522 lung,23.8 µM
same,GI50,OVCAR-3 ovarian,2.24 µM
same,TGI,OVCAR-3 ovarian,6.35 µM
same,GI50,OVCAR-4 ovarian,2.41 µM
same,TGI,OVCAR-4 ovarian,6.7 µM
same,GI50,OVCAR-5 ovarian,11.8 µM
same,TGI,OVCAR-5 ovarian,25.2 µM
same,GI50,OVCAR-8 ovarian,2.99 µM
same,TGI,OVCAR-8 ovarian,11.6 µM
same,GI50,PC-3 prostate,2.52 µM
same,TGI,PC-3 prostate,> 98 µM
same,GI50,RPMI-8226 leukemia,3.1 µM
same,TGI,RPMI-8226 leukemia,40.7 µM
same,GI50,RXF 393 renal,3.59 µM
same,TGI,RXF 393 renal,15.8 µM
same,GI50,SF-268 CNS,7.76 µM
same,TGI,SF-268 CNS,63.6 µM
same,GI50,SF-295 CNS,4.1 µM
same,TGI,SF-295 CNS,16.9 µM
same,GI50,SF-539 CNS,3.39 µM
same,TGI,SF-539 CNS,11.7 µM
same,GI50,SK-MEL-2 melanoma,3.01 µM
same,TGI,SK-MEL-2 melanoma,13.2 µM
same,GI50,SK-MEL-28 melanoma,10.8 µM
same,TGI,SK-MEL-28 melanoma,28.2 µM
same,GI50,SK-MEL-5 melanoma,1.39 µM
same,TGI,SK-MEL-5 melanoma,2.67 µM
same,GI50,SK-OV-3 ovarian,19.4 µM
same,TGI,SK-OV-3 ovarian,79.6 µM
same,GI50,SN12C renal,2.27 µM
same,TGI,SN12C renal,8.31 µM
same,GI50,SNB-19 CNS,5.4 µM
same,TGI,SNB-19 CNS,20.1 µM
same,GI50,SR leukemia,3.18 µM
same,TGI,SR leukemia,> 98 µM
same,GI50,SW-620 colon,2.88 µM
same,TGI,SW-620 colon,11 µM
same,GI50,T-47D breast,2.66 µM
same,TGI,T-47D breast,9.9 µM
same,GI50,TK-10 renal,18.6 µM
same,TGI,TK-10 renal,97.6 µM
same,GI50,U251 CNS,3.11 µM
same,TGI,U251 CNS,13.3 µM
same,GI50,UACC-257 melanoma,1.72 µM
same,TGI,UACC-257 melanoma,4.16 µM
same,GI50,UACC-62 melanoma,2.05 µM
same,TGI,UACC-62 melanoma,5.31 µM
same,GI50,UO-31 renal,11 µM
same,TGI,UO-31 renal,25.7 µM
